Measurements from US9717714B2, “Spirocyclic CETP inhibitors” (Merck Sharp & Dohme Corp., priority 2012, dated 2017).

Each compound was assayed against endogenous CETP from serum (Homo sapiens (Human), UniProt P11597) (assay: RTA assay in 95% human serum (CETP-catalyzed CE and TG transfer, endogenous CETP)). Conditions: 95% human serum; read-out: RTA (95% HS).
Assay type: biochemical
Text: In Vitro Radioactive Assays of CETP-Catalyzed CE and TG Transfer (RTA Assay)
Reagents and sources are: [3H] cholesteryl oleate (GE #TRK.886), [3H] Triolein (Perkin-Elmer NET-431), Butylated hydroxyl toluene (Aldrich, #D4740-4), DOPC (Sigma, #P6354), Sodium Bromide (Fisher scientific #S255-500), PEG 8000 (Fisher, #BP233-1), and human HDL (Intracel Corp #RP-036).
Both assays measure the transfer of [3H] cholesteryl oleate or [3H] triolein from exogenous LDL to HDL.
Radiolabeled donor particles are generated by first combining 100 μl of 200 μM butylated hydroxyl toluene in CHCl3, 216 μL of 21.57 mM DOPC in EtOH, and either 500 μCi [3H]-triolein (Perkin Elmer #NET-431) or 500 μCi [3H]-cholesteryl oleate (GE #TRK886) in a glass tube. Reagents are mixed, dried under nitrogen, and then resuspended in 2 mL of 50 mM Tris, 27 μM EDTA at pH 7.4. After a brief vortex, the solution is sonicated until clear and mixed with 20 mL of fresh human serum. The mixture is incubated overnight at 37° C. The [3H] labeled LDL substrate is separated at 1.063 g/ml density by sequential ultracentrifugal flotation in NaBr according to the method of Havel, Eder, et al., 1955, and Chapman, Goldstein, et al., 1981. Once isolated the particles are dialyzed 3× in CETP buffer (50 mM Tris, pH 7.4, 100 mM NaCl, 1 mM EDTA). Human HDL is purchased from Intracel and used as the acceptor particles.
Transfer assays are performed in a 96-well v-bottom polypropylene plate. For the RTA using recombinant CETP (2% RTA), an assay cocktail is prepared with the final concentrations 128 μg/mL HDL, 20 nM rCETP, 2% human serum, and 1×CETP buffer. 1 μL of each test compound diluted in DMSO is added to 47 μL of assay cocktail per well and incubated at 37° C. for 1 hour. To initiate the transfer reaction, 2 μL radiolabeled LDL is added. After an additional 60 min of incubation at 37° C., the transfer action is terminated by precipitation of LDL with an equal volume of 20% W/V PEG 8000. The plates are centrifuged at 2000 rpm for 30 minutes at 4° C. A 40 μL aliquot of the HDL-containing supernatant is transferred to a Packard Optiplate™ with 200 μL of MicroScint™ 20. After mixing, plates are counted by liquid scintillation. Counts present in the supernatant for blanks (wells containing only HDL acceptor, CETP buffer and DMSO) are subtracted from those containing test compounds and used to correct for non-specific transfer.
For the transfer assay using endogenous CETP from serum (95% RTA), the same procedure is used except that human serum is added such that a final concentration of serum of 95% of the total assay volume is achieved, yielding a concentration of approximately 15 nM endogenous CETP in the assay. This is then combined with HDL and CETP buffer and the reaction proceeds as above and is terminated as described.
Comparison of the counts of samples with inhibitors to an uninhibited (DMSO only) positive control yield a percent inhibition. A plot of percent inhibition vs. log of inhibitor concentration, fit to a Sigmoidal 4 parameter equation is used to calculate IC50.
Starting materials are commercially available or are made using known procedures or as shown below. The examples may be synthesized according to the general schemes provided below and through the synthetic intermediates that are described. […] When compounds of Formula I or Formula II are mentioned herein, such compounds include compounds defined generically by Formula I or II and also the specific examples disclosed herein.

Chain of endogenous CETP from serum (P11597 18-493 limits assumed): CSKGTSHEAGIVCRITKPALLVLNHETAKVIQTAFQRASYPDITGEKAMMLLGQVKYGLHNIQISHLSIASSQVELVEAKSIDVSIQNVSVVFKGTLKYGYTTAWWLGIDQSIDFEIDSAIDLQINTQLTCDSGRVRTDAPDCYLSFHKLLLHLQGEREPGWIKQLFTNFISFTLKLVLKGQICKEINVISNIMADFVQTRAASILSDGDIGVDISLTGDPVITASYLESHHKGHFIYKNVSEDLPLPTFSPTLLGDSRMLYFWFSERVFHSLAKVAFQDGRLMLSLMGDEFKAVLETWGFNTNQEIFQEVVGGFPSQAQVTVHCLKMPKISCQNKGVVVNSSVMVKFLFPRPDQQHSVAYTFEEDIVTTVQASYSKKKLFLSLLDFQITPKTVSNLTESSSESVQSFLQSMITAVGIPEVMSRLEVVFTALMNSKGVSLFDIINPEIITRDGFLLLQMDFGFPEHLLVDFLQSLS

SMILES | IC50 [nM]
COC(=O)c1ccc(-c2ccc(OC)c(-c3cnc(SC)nc3CN3C(=O)O[C@H](c4cc(C(F)(F)F)cc(C(F)(F)F)c4)C34CCC4)c2)c(C)c1 [Example 17, methyl 3′-[4-({(8R)-8-[3,5-bis(trifluoromethyl)phenyl]-6-oxo-7-oxa-5-azaspiro[3.4]oct-5-yl}methyl)-2-(methylsulfanyl)pyrimidin-5-yl]-4′-methoxy-2-methylbiphenyl-4-carboxylate] | 913
COc1ccc([C@H]2C[C@H](CO)C2)cc1-c1ccc(C(F)(F)F)nc1CN1C(=O)O[C@H](c2cc(C(F)(F)F)cc(C(F)(F)F)c2)C12CC2 [Example 6, (7R)-7-[3,5-bis(trifluoromethyl)phenyl]-4-{[3-{5-[trans-3-(hydroxymethyl)cyclobutyl]-2-methoxyphenyl}-6-(trifluoromethyl)pyridin-2-yl]methyl}-6-oxa-4-azaspiro[2.4]heptan-5-one] | 1850

Same assay, conditions: generally RTA assay in 95% human serum; read-out: IC50

SMILES | IC50 [nM]
COc1cc(F)c(C(C)C)cc1-c1cnc(N(C)C)nc1CN1C(=O)OC(c2cc(C(F)(F)F)cc(C(F)(F)F)c2)C12CC2 (stereo not drawn) [Example 10, 7-[3,5-bis(trifluoromethyl)phenyl]-4-({2-(dimethylamino)-5-[4-fluoro-2-methoxy-5-(1-methylethyl)phenyl]pyrimidin-4-yl}methyl)-6-oxa-4-azaspiro[2.4]heptan-5-one] | 345
COc1ccc(-c2ccc(CO)cc2C)cc1-c1cnc(N2CC(F)C2)nc1CN1C(=O)O[C@H](c2cc(C(F)(F)F)cc(C(F)(F)F)c2)C12CCC2 [Example 7, (8R)-8-[3,5-bis(trifluoromethyl)phenyl]-5-({2-(3-fluoroazetidin-1-yl)-5-[4′-(hydroxymethyl)-4-methoxy-2′-methylbiphenyl-3-yl]pyrimidin-4-yl}methyl)-7-oxa-5-azaspiro[3.4]octan-6-one] | 68
COc1ccc(-c2ccc(C(=O)O)cc2C)cc1-c1cnc(N2CC(F)C2)nc1CN1C(=O)O[C@H](c2cc(C(F)(F)F)cc(C(F)(F)F)c2)C12CCC2 [Example 12, 3′-[4-({(8R)-8-[3,5-bis(trifluoromethyl)phenyl]-6-oxo-7-oxa-5-azaspiro[3.4]oct-5-yl}methyl)-2-(3-fluoroazetidin-1-yl)pyrimidin-5-yl]-4′-methoxy-2-methylbiphenyl-4-carboxylic acid] | 73
COc1ccc(-c2ccc(C(=O)O)cc2C)cc1-c1ccc(C(F)(F)F)nc1CN1C(=O)O[C@H](c2cc(C(F)(F)F)cc(C(F)(F)F)c2)C12CC2 [Example 2, 3′-[2-({(7R)-7-[3,5-bis(trifluoromethyl)phenyl]-5-oxo-6-oxa-4-azaspiro[2.4]hept-4-yl}methyl)-6-(trifluoromethyl)pyridine-3-yl]-4′-methoxy-2-methylbiphenyl-4-carboxylic acid] | 212
COc1cc(F)c(C(C)C)cc1-c1cnc(N(C)C)nc1CN1C(=O)OC(c2cc(C(F)(F)F)cc(C(F)(F)F)c2)C12CCC2 (stereo not drawn) [Example 11, 8-[3,5-bis(trifluoromethyl)phenyl]-5-({2-(dimethylamino)-5[4-fluoro-2-methoxy-5-(1-methylethyl)phenyl]pyrimidin-4-yl}methyl)-7-oxa-5-azaspiro[3.4]octan-6-one] | 318
COc1ccc(CCC(=O)O)cc1-c1ccc(C(F)(F)F)nc1CN1C(=O)O[C@H](c2cc(C(F)(F)F)cc(C(F)(F)F)c2)C12CC2 [Example 5, 3-{3-[2-({(7R)-7-[3,5-bis(trifluoromethyl)phenyl]-5-oxo-6-oxa-4-azaspiro[2.4]hept-4-yl}methyl)-6-(trifluoromethyl)pyridin-3-yl]-4-methoxyphenyl}propanoic acid] | 3360
COc1cc(F)c(-c2ccc(C(=O)O)cc2C)cc1-c1ccc(C(F)(F)F)nc1CN1C(=O)O[C@H](c2cc(C(F)(F)F)cc(C(F)(F)F)c2)C12CC2 [Example 3, 5′-[2-({(7R)-7-[3,5-bis(trifluoromethyl)phenyl]-5-oxo-6-oxa-4-azaspiro[2.4]hept-4-yl}methyl)-6-(trifluoromethyl)pyridin-3-yl]-2′-fluoro-4′-methoxy-2-methylbiphenyl-4-carboxylic acid] | 119
